The values that follow come from ChEMBL document CHEMBL4420066, “Aryl amine substituted quinoxaline used as anticancer drugs” (2017).

Assay [1] deals with HA22T cell line. The assay can be described thus: Induction of apoptosis in human HA22T cells assessed as induction of DNA fragmentation at 1 uM incubated for 24 hrs by ELISA. Format: functional, cell-based. (In an ELISA, binding on a coated surface is turned into a signal by an enzyme label.)
Assay [2] concerns HA22T cell line. As to the kind of experiment: Induction of apoptosis in human HA22T cells >= 2 uM incubated for 48 hrs by annexin-V-FITC staining based by flow cytometry relative to control. Format: functional. (A flow cytometer gives signals particle by particle.)
Assay [3] concerns HA22T cell line. The assay can be described thus: Induction of apoptosis in human HA22T cells assessed as induction of PARP cleavage at 0.5 to 4 uM incubated for 48 hrs by Western blotting analysis. Format: functional, cell-based. For orientation: A western blot detects proteins with antibodies after separation by electrophoresis.
Assay [4] concerns Hep 3B2. The assay can be described thus: Induction of apoptosis in human Hep3B cells assessed as induction of PARP cleavage at 0.5 to 4 uM incubated for 48 hrs by Western blotting analysis. It is filed as functional, cell-based.
The species entered for assay [5] is Homo sapiens. As to the kind of experiment: Induction of apoptosis in human PLC5 cells assessed as induction of PARP cleavage at 0.5 to 4 uM incubated for 48 hrs by Western blotting analysis. Format: functional, cell-based.
Assay [6] has as its system Hep 3B2. The assay can be described thus: Induction of apoptosis in human Hep3B cells assessed as induction of PARP cleavage at 2 uM in presence of caspase inhibitor Z-VAD-fmk incubated for 48 hrs by Western blotting analysis. It is filed as functional, cell-based.
In assay [7] the test system is HA22T cell line. The assay can be described thus: Inhibition of CIP2A protein expression in human HA22T cells assessed as CIP2A protein expression ratio level at 1 uM by Western blotting analysis (Rvb =1). It is filed as functional.
The test system of assay [8] is Hep 3B2. As to the kind of experiment: Inhibition of CIP2A protein expression in human Hep3B cells assessed as CIP2A protein expression ratio level at 4 uM by Western blotting analysis (Rvb =1). Format: functional.
Another assay relates to SK-HEP1. The assay can be described thus: Inhibition of CIP2A protein expression in human SKHEP1 cells assessed as CIP2A protein expression ratio level at 0.5 uM by Western blotting analysis (Rvb =1). It is filed as functional.
For assay [9], the target named is T1, Serine/threonine-protein kinase AKT (Homo sapiens) (UniProt P31751+Q9Y243+P31749). The assay can be described thus: Inhibition of Akt phosphorylation at S473 residue in human Hep3B cells by Western blotting analysis. Format: cell-based.
For assay [10], the species on record is Homo sapiens. The assay can be described thus: Activation of PP2A in human SKHEP1 cells assessed as increase in protein phosphatase activity at 1 uM incubated for 24 hrs using phosphopeptide substrate incubated for 10 mins by malachite green-phosphate complex assay. Format: cell-based.
For assay [11], the species on record is Homo sapiens. As to the kind of experiment: Inhibition of PP2A-B5 protein expression in human PLC5 cells at 1 uM incubated for 24 hrs by Western blotting analysis. Format: functional, cell-based.
The target in assay [12] is T1, Serine/threonine-protein kinase AKT (Homo sapiens). As to the kind of experiment: Inhibition of Akt phosphorylation at S473 residue in human PLC5 cells at 2 uM incubated for 24 hrs in presence of 100 nM PP2A inhibitor okadaic acid by Western blotting analysis. Format: cell-based.
The species named for assay [13] is Homo sapiens. As to the kind of experiment: Inhibition of human CIP2A gene promoter in human PLC5 cells assessed as inhibition of ELK1 protein expression at 2 uM by Western blotting analysis. It is filed as cell-based.
Assay [14] has as its system Homo sapiens. As to the kind of experiment: Antitumor activity against human PLC5 cells xenografted in mouse assessed as reduction in tumor size at 10 mg/kg dosed for 4 weeks. It is filed as functional, organism-based.
The subject of a further assay is Mus musculus. As to the kind of experiment: Suppression of CIP2A expression in tumor of human PLC5 cells xenografted in mouse at 10 mg/kg dosed for 4 weeks by Western blot analysis. Format: functional, organism-based.
For assay [15], the species on record is Homo sapiens. As to the kind of experiment: Activation of PP2A in human HA22T cells assessed as minimal concentration causing increase in protein phosphatase activity incubated for 24 hrs using phosphopeptide substrate incubated for 10 mins by malachite green-phosphate complex assay. It is filed as cell-based.
Assay [16] is filed under the species Homo sapiens. The assay can be described thus: Activation of PP2A in human Hep3B cells assessed as minimal concentration causing increase in protein phosphatase activity incubated for 24 hrs using phosphopeptide substrate incubated for 10 mins by malachite green-phosphate complex assay. Format: cell-based.
Assay [17] is filed under the species Homo sapiens. As to the kind of experiment: Activation of PP2A in human SKHEP1 cells assessed as minimal concentration causing increase in protein phosphatase activity incubated for 24 hrs using phosphopeptide substrate incubated for 10 mins by malachite green-phosphate complex assay. It is filed as cell-based.

Molecules are shown by their SMILES. The source made the active and inactive calls. The calls are words filed in the database; no cut-off is given here.

T1 sequence (P31749 whole entry, looked up): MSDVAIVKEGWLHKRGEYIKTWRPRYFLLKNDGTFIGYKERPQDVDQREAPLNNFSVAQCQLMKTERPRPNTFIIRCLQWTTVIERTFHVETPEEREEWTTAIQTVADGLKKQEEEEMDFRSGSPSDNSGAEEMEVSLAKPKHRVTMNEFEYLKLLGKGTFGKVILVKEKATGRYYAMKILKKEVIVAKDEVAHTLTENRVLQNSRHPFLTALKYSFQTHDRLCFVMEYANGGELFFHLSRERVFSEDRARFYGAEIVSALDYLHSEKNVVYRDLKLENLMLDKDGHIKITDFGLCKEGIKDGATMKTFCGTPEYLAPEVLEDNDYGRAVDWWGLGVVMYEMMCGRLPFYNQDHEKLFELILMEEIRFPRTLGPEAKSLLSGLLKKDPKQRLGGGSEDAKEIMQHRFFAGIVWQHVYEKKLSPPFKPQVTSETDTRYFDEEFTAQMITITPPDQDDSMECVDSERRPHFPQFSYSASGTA
T1 sequence (P31751 whole entry, looked up): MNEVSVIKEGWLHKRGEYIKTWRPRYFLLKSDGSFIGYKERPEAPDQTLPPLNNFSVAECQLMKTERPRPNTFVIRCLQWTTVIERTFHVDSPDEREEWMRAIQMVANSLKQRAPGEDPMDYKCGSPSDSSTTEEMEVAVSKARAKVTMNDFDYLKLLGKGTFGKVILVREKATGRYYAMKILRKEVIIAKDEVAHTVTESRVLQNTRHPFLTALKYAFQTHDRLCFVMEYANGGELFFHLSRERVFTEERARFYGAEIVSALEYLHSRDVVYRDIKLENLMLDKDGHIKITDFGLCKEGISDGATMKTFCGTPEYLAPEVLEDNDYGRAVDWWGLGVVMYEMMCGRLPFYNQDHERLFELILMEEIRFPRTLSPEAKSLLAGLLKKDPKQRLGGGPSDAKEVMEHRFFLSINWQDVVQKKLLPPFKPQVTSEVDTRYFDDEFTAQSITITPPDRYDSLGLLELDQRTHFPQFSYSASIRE
T1 sequence (Q9Y243 whole entry, looked up): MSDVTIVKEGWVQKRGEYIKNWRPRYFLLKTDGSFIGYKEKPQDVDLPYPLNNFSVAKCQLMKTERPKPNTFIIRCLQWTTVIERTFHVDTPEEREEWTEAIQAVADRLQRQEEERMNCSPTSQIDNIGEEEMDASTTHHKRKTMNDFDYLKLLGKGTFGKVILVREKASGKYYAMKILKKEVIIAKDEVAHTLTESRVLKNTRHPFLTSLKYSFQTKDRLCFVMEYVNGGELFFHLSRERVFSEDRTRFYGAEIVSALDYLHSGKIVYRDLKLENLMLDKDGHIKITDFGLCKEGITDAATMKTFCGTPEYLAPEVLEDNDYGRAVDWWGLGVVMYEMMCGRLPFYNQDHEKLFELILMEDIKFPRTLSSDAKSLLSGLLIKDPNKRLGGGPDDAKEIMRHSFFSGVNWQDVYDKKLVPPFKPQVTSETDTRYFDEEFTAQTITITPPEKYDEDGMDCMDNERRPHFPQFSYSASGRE

Regarding `C#Cc1cccc(Nc2nc3ccccc3nc2Nc2cccc(C#C)c2)c1`, the outcome in the assay on HA22T cell line [1], in the assay listed under Homo sapiens [10], in the assay with Homo sapiens [14] and in the assay with Mus musculus was Active. For the same compound, the Activity in the assay on HA22T cell line [2] is 50%; in the assay on HA22T cell line [3] it was “Dose-dependent effect”; in the assay on Hep 3B2 [4] it was “Dose-dependent effect”; in the assay filed under Homo sapiens [5], “Dose-dependent effect”. Besides, the outcome with Hep 3B2 [6] was inactive. Moreover, the results for the Ratio in the assay on HA22T cell line [7], in the assay on Hep 3B2 [8] and with SK-HEP1 were 0.84, 0.13 and 0.73, respectively. Besides, the inhibition result in [9] is “Dose-dependent effect”. For the same compound, the inhibition result (in the assay filed under Homo sapiens [11]; in assay [12]) was “inactive” each time. Besides, the inhibition entry in the assay listed under Homo sapiens [13] is “Active”. In addition, the MEC in the assay listed under Homo sapiens [15], in the assay listed under Homo sapiens [16] and in the assay filed under Homo sapiens [17] was 100 to 200 nM each time.
